# From the supplement of paper PMC10307832
# Key:
# Assay in all cases: relative viability (nuclei count vs DMSO), 5 days (fraction); higher = more cells survive
# [1] = compound: C#Cc1cccc(Nc2ncnc3cc(OCCOC)c(OCCOC)cc23)c1 [Erlotinib] + Cc1nc(NC(=O)N2CCC[C@H]2C(N)=O)sc1-c1ccnc(C(C)(C)C(F)(F)F)c1 [Alpelisib] (partner 2 µM)
# Procedure, shortened: (§1)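 Lung cancer cell lines in 1536-well plates were dosed by pin tool the day after seeding, either with one drug alone or with a fixed anchor-drug dose plus five library-drug doses (not always all listed) in √10 steps. After 5 days, cells were fixed and their nuclei stained in one step (final 0.05% Triton X-100, 1% formaldehyde, 1 ug/ml Hoechst), then counted on 4× images. Relative viability is the nuclei count in treated wells divided by that in vehicle wells. Values are medians of duplicate plates.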
# [2] = compound: O=C(Nc1c[nH]nc1-c1nc2ccc(CN3CCOCC3)cc2[nH]1)NC1CC1 [AT9283] + CC(=O)Nc1cccc(-n2c(=O)n(C3CC3)c(=O)c3c(Nc4ccc(I)cc4F)n(C)c(=O)c(C)c32)c1 [Trametinib] (partner 0.02 µM)
# Procedure, shortened: as §1
# [3] = compound: O=C(Nc1c[nH]nc1-c1nc2ccc(CN3CCOCC3)cc2[nH]1)NC1CC1 [AT9283] + Cc1nc(NC(=O)N2CCC[C@H]2C(N)=O)sc1-c1ccnc(C(C)(C)C(F)(F)F)c1 [Alpelisib] (partner 2 µM)
# Procedure, shortened: as §1
# [4] = compound: C#Cc1cccc(Nc2ncnc3cc(OCCOC)c(OCCOC)cc23)c1 [Erlotinib] + CCNC(=O)c1noc(-c2cc(C(C)C)c(O)cc2O)c1-c1ccc(CN2CCOCC2)cc1 [Luminespib] (partner 0.01 µM)
# Procedure, shortened: as §1
# [5] = compound: C#Cc1cccc(Nc2ncnc3cc(OCCOC)c(OCCOC)cc23)c1 [Erlotinib] + COc1cc2c(Oc3ccc(NC(=O)C4(C(=O)Nc5ccc(F)cc5)CC4)cc3F)ccnc2cc1OCCCN1CCOCC1 [Foretinib] (partner 0.25 µM)
# Procedure, shortened: as §1
Cell Line,relative viability ([1]; first compound 0.02 µM),relative viability ([1]; first compound 0.2 µM),relative viability ([1]; first compound 0.6325 µM),relative viability ([1]; first compound 2 µM),relative viability ([2]; first compound 0.003 µM),relative viability ([2]; first compound 0.03 µM),relative viability ([2]; first compound 0.09487 µM),relative viability ([2]; first compound 0.3 µM),relative viability ([3]; first compound 0.003 µM),relative viability ([3]; first compound 0.03 µM),relative viability ([3]; first compound 0.09487 µM),relative viability ([3]; first compound 0.3 µM),relative viability ([4]; first compound 0.02 µM),relative viability ([4]; first compound 0.2 µM),relative viability ([4]; first compound 0.6325 µM),relative viability ([4]; first compound 2 µM),relative viability ([5]; first compound 0.02 µM),relative viability ([5]; first compound 0.2 µM),relative viability ([5]; first compound 0.6325 µM),relative viability ([5]; first compound 2 µM)
LOU-NH91,0.539,0.495,0.527,0.512,0.801,0.788,0.536,0.493,0.695,0.684,0.531,0.427,0.412,0.297,0.364,0.31,0.519,0.524,0.585,
LU99A,0.644,0.478,0.562,0.333,0.539,0.327,0.178,0.217,0.489,0.222,0.144,0.152,0.27,0.257,0.231,0.223,0.861,0.833,0.829,0.678
NCI-H522,,,,,0.736,0.811,0.599,0.415,,,,,1.16,0.954,1.15,0.965,,,,
NCI-H1299,1.07,1.03,1.1,1.03,,,,,1.08,1.04,0.476,0.352,,,,,1.11,1.08,1.16,1.07
NCI-H1563,0.931,,0.952,0.799,,,,,1.08,0.81,0.732,0.628,0.527,0.495,0.512,0.477,0.979,0.836,0.955,0.951
NCI-H1623,,,,,,,,,,,,,0.414,0.425,0.352,0.336,0.923,0.679,0.366,0.301
NCI-H1648,,,,,0.404,0.563,0.333,0.336,,,,,,,,,,,,
NCI-H1650,,,,,0.604,0.545,0.399,0.179,,,,,0.218,0.188,0.206,0.21,0.747,0.594,0.697,0.699
NCI-H1703,0.367,0.321,0.352,0.296,,,,,0.361,0.214,0.174,0.223,,,,,0.33,0.419,0.343,0.357
NCI-H1792,,0.595,0.77,0.49,0.315,0.376,0.509,0.258,0.633,0.82,0.565,0.242,0.42,0.319,0.49,0.281,,,,
NCI-H2342,,,,,0.841,0.808,0.707,0.442,,,,,0.731,0.609,0.573,0.739,1.08,0.899,0.932,
SW 900,,,,,0.66,0.607,0.345,0.27,,,,,0.201,0.172,0.178,0.173,0.98,0.92,0.792,0.757
